Results on 8 molecules are retold here after US10662210B2, “Compositions and methods comprising osmium for the treatment of cancers” (Massachusetts Institute of Technology, priority 2014, dated 2020).

By IC50 is commonly meant the concentration at which inhibition is half-maximal. A lower IC50 goes with inhibition by little substance.

The nature of data set [1]: Water-octanol partition coefficient (log P), shake-flask method with GF-AAS. Type of data set: physicochemical. Particulars: room temperature, 50 μM. How it is done: Those of ordinary skill in the art would be knowledgeable of methods of determining the water-octanol partition coefficient of compounds. For example, the log P of a compound may be obtained using the shake-flask method and graphite furnace atomic absorption spectroscopy (GF-AAS). Briefly, in the shake-flask method, octanol is pre-saturated with water by overnight incubation with shaking of a biphasic mixture of the two at room temperature. A portion of 0.5 mL water containing 50 μM of the given compound is incubated with the pre-saturated octanol (0.5 mL) in a 1.5 mL tube. The tube is shaken at room temperature for 3 hours. The two phases are separated by centrifugation and the osmium content (concentration) in each phase is determined by GFAAS. The log P is then calculated using the formula below: log P=log 10[(concentration of osmium in the octanol layer)/(concentration of osmium in the water layer)].
The log P values were obtained using the shake-flask method and graphite furnace atomic absorption spectroscopy (GF-AAS). Octanol used in this experiment was pre-saturated with water by overnight incubation with shaking of a biphasic mixture of the two at room temperature. A portion of 0.5 mL water containing 50 μM of the given compound was incubated with the pre-saturated octanol (0.5 mL) in a 1.5 mL tube. The tube was shaken at room temperature for 3 h. The two phases were separated by centrifugation and the osmium content (concentration) in each phase was determined by GFAAS. All the experiments were carried out in triplicate. The log P was then calculated using the formula below: Log P=log 10[(conc. of osmium in the octanol layer)/(conc. of osmium in the water layer)].

Data set [2] concerns A2780/CP70 (ovarian). Put plainly: Cytotoxicity MTT assay. As to conditions: 72 h, cisplatin-resistant. Type of data set: cell-based, human. How it is done:
(§1) The anti-proliferative properties of 1-4 against a panel of human cancer cell lines were assessed by the MTT [3-(4,5-dimethylthiazol-2-yl)-2,5-diphenyltetrazolium bromide] assay. Cisplatin was included as a control. The IC50 values, concentrations required to induce 50% viability, were derived from dose-response curves and are summarized in Table 1.
(§2) A549 lung adenocarcinoma, HeLa cervical cancer, and MRC5 normal human fetal lung fibroblast cell lines were maintained in Dulbecco's Modified Eagle's Medium (DMEM-low glucose) supplemented with 10% fetal bovine serum and 1% penicillin/streptomycin. The cisplatin-sensitive A2780 ovarian cancer and the cisplatin-resistant A2780/CP70 ovarian cancer cell lines were cultured in RPMI (glutamine free) media supplemented with 10% fetal bovine serum and 1% penicillin/streptomycin. All cells were grown at 310 K in a humidified atmosphere containing 5% CO2.
(§3) The colorimetric MTT assay was used to determine the toxicity of the osmium complexes and cisplatin. Cells (2×10^3) were seeded in each well of a 96-well plate. After incubating the cells overnight, various concentrations of test compound (0.3-100 μM) were added and incubated for 72 h (total volume 200 μL). The test compounds were prepared as 10 mM solutions in DMSO and diluted using media. The final concentration of DMSO in each well was 0.5% and this amount was present in the untreated control as well. Cisplatin was prepared as a 5 mM solution in PBS and diluted further using media. After 72 h, the medium was removed, 200 μL of a 0.4 mg/mL solution of MTT in DMEM or RPMI was added, and the plate was incubated for an additional 1-2 h. The DMEM/MTT or RPMI/MTT mixture was aspirated and 200 μL of DMSO was added to dissolve the resulting purple formazan crystals. The absorbance of the solution wells was read at 550 nm. Absorbance values were normalized to DMSO-containing control wells and plotted as concentration of test compound versus % cell viability. IC50 values were interpolated from the resulting dose dependent curves. The reported IC50 values are the average from at least three independent experiments, each of which consisted of six replicates per concentration level.

Data set [3] has as its system A2780 (ovarian). Put plainly: Cytotoxicity MTT assay. Particulars: MTT, 72 h. Type of data set: cell-based, human. On the procedure: as §1, §2, §3
A general note: Formazan colour is commonly taken as a measure of viable cells.

Data set [4] relates to MRC-5 (lung normal). Put plainly: Cytotoxicity MTT assay. Type of data set: cell-based, human. As to conditions: 72 h. How it is done:
as §1, §2, §3

The test system of data set [5] is HeLa (cervical). Put plainly: Cytotoxicity MTT assay. Type of data set: cell-based, human. Particulars: 72 h. On the procedure:
as §1, §2, §3

Data set [6] deals with A549 (lung). The data set is described as follows: Cytotoxicity MTT assay. As to conditions: 72 h. Type of data set: cell-based, human. How it is done: as §1, §2, §3
Data set [7] relates to HMLER CSC-depleted. The data set is described as follows: Cytotoxicity against CSC-depleted breast cancer cells. Type of data set: cell-based.
From the text: (§4) Cancer relapse is strongly linked to the existence of CSCs. […] Conventional chemotherapy and radiotherapy are often ineffective against CSCs. Although current therapies effectively reduce tumor mass by destroying the bulk of cancer cells, they are unable to remove CSCs, which persist and generate new tumors, often of a far more aggressive nature. Therefore, in order to improve clinical outcomes, treatments must have the ability to kill the entirety of cancer cells, including CSCs. The osmium compound, described in Formula (I), wherein X^1, X^2, and X^3 were chloride ligands and the bidentate ligand was a 1,10-phenanthroline ligand, was able to kill breast cancer cells (HMLER) enriched with CSCs, 2.3-fold better than CSC-depleted breast cancer cells. […] The selectivity of the osmium compound can be seen in Table 2 as well as FIGS. 17A-B and 18.
as §3

Data set [8] concerns HMLER^tax CSC-enriched. Put plainly: Cytotoxicity against CSC-enriched breast cancer cells. Type of data set: cell-based. Particulars: for HMLER^tax selectivity: CSC-enriched vs CSC-depleted.
From the text: as §4, §3

Data set [9] deals with A2780 cells. The data set is described as follows: Cytotoxicity MTT assay with pathway and cell death inhibitors. Type of data set: cell-based, human. Particulars: salubrinal 10 μM. How it is done: This finding led to the investigation of the possibility that 4 may induce endoplasmic reticulum (ER) stress. Co-administration of 4 and salubrinal (10 μM), a known ER stress inhibitor, reduced the cytotoxicity of 4 in A2780 cells. […] To further validate the ER as the main target for 4, the expression of proteins related to the unfolded protein response (UPR) was monitored. […] ER membrane expansion is widely associated with ER stress. With this fact in mind the ER size of A2780 cells upon incubation with 4 were examined using fluorescence microscopy. Relative to untreated controls (FIG. 3B), cells exposed to 4 (10 μM) for 4 h had 25.1% larger ER coverage (FIG. 3C). The ER size relative to the whole cell of the untreated controls was about 30% and the ER size relative to the whole cell of the treated samples was about 55%.
Having established the intracellular targets of 2 and 4, the role of p53, a cell cycle and apoptosis regulator, in the cellular responses evoked was investigated. […] Therefore, p53 played a fundamental role in coordinating the cellular response to 2-induced DNA damage. […] (FIG. 13). […] To relate p53 to potency, cytotoxicity studies were conducted in the presence of p53 inhibitors pifithrin-α and pifithrin-μ. (both 10 μM). […] The IC50 values of compound 2 in the absence and presence of p53 inhibitor pifithrin-μ after 72 hours incubation was about 2 μM and about 30 μM, respectively.
as §3
For specific pathway and cell death inhibitor assays, inhibitors of p53 (pifithrin-α, 10 μM and pifithrin-μ, 10 μM), ER stress (salubrinal, 10 μM), necrosis (IM-54, 10 μM), and autophagocytosis (chloroquine, 10 μM) were added to cells and incubated for 0-1 h prior to treatment with the test compounds.

For OsN(2,2′-bipyridine)Cl3 [Complex 1], the “log P (water-octanol coefficient)” value in [1] came out at 0.71. Also, the half-inhibitory concentration (IC50) was 3.94 ± 1.75 µM in [2]; 3.8 ± 0.21 µM in data set [3]; 21.6 ± 4.85 µM in data set [4]; 9.24 ± 0.58 µM in data set [5]; 6.11 ± 0.87 µM in data set [6].

In [7], `N.N.O=C([O-])C1(C(=O)[O-])CCC1.[Pt+2]` [carboplatin] registered an IC50 of 17.8 µM. Also, in data set [8], the midpoint of inhibition, the IC50, lay at 18.2 µM and the “HMLER^tax selectivity” value stood at 0.98.

Molecule `CC[C@@H](C(=O)[C@@H](C)[C@@H](O)[C@H](C)[C@@H]1O[C@@H]([C@@H](CC)C(=O)O)CC[C@@H]1C)[C@H]1O[C@]2(C=C[C@@H](O)[C@]3(CC[C@@](C)([C@H]4CC[C@](O)(CC)[C@H](C)O4)O3)O2)[C@H](C)C[C@@H]1C` [salinomycin] displayed an IC50 in data set [7] of 0.49 µM. In addition, in [8], the IC50 stood at 0.058 µM and the “HMLER^tax selectivity” value stood at 8.45.

With abamectin, the results for the IC50 in [7] and in data set [8] were 1.45 µM and 0.64 µM, respectively. Moreover, in [8], the “HMLER^tax selectivity” value is 2.26.

Consider `CC1=C[N]2c3c4c(ccc3=C1C)=C(C)C(C)=C[N]4[Os]2(#[N])([Cl])([Cl])[Cl]` [Complex 3, OsN(3,4,7,8-tetramethyl-1,10-phenanthroline)Cl3], for which the “log P (water-octanol coefficient)” value in data set [1] came to 1.54. Further, the IC50 in data set [2] amounted to 3.91 ± 0.26 µM; in data set [3], 7.97 ± 1.41 µM; in data set [4], 17.2 ± 2.16 µM; in data set [5], 6.34 ± 0.52 µM; in data set [6], 14.9 ± 1.63 µM.

The molecule `O=C1[O][Pt]2([NH][C@@H]3CCCC[C@H]3[NH]2)[O]C1=O` [oxaliplatin] gave an IC50 in data set [7] of 15 µM. Also, in data set [8], the IC50 was 26.9 µM and the “HMLER^tax selectivity” value worked out at 0.55.

In turn, `CC(=O)[O][Pt]([NH2])([Cl])([Cl])([NH]C1CCCCC1)[O]C(C)=O` [satraplatin] gave a concentration for half-maximal inhibition (IC50) in [7] of 1.22 µM. In data set [8], the IC50 was 2.87 µM and the “HMLER^tax selectivity” value was 0.43.

With `N.N.[Cl][Pt][Cl]` [cisplatin, reference compound], the half-maximal inhibitory concentration (IC50) was 1.95 µM in data set [7]; 2.06 µM in data set [8]; 10.3 ± 1.5 µM in data set [2]; 1.41 ± 0.37 µM in [3]; 11.1 ± 1.33 µM in data set [4]; 2.83 ± 0.06 µM in data set [5]. This molecule also had an IC50 in data set [6] of 3.59 ± 0.92 µM. Also, the “effect of salubrinal on toxicity” value in data set [9] is listed as “limited effect”. Further, the “HMLER^tax selectivity” value in [8] came to 0.95.
